Data taken from patent US20150079206A1, “TRIGONELLINE AS A MUSCLE STIMULANT” (DSM IP ASSETS B.V., priority 2009, published 2015).

Tested on: Female C57B1/6 mice
Assay: Maximal endurance test (treadmill) in non-trained animals
Type: in vivo, mouse
Description: To test the effect of trigonelline in non-trained animals, we performed a maximal endurance test after a treatment period of three weeks.
Female C57B1/6 mice were delivered at a weight of 18-20 g and acclimatized to the facilities for a period of one week. At the beginning of the study the animals were randomized into two groups (10 animals per group). All mice were housed separately and had access to feed and water ad libidum. Animals were treated for three weeks by gavage with trigonelline-hydrochloride at a daily dosage of 300 mg/kg/BW and the control group received vehicle.
For acclimatization, animals were placed on the treadmill for 5 minutes after two weeks. The maximal endurance test was performed two day before the section of the animals.

Structure (SMILES): C[n+]1cccc(C(=O)[O-])c1 [Trigonelline, trigonelline monohydrate]
- skeletal muscle mass in untrained mice (in words) (3 weeks of supplementation): no effect
- endurance of untrained animals (in words) (3 weeks of supplementation, monohydrate): not influenced
- wet weight of the gastrocnemius muscle, treated vs control (in words) (untrained mice, three weeks of supplementation, FIG. 4): equal in both groups
